Results reported in patent US10071109B2, “Predictive biomarker for hypoxia-activated prodrug therapy” (Molecular Templates, Inc., priority 2013, dated 2018).

How the values were obtained:
[1] = test system: GL0608 gall bladder cancer PDX xenograft model; assay: TH-302 efficacy in GL0608 gall bladder cancer PDX xenograft model; assay type: in vivo, mice
Text: (§1) A series of tumor xenograft experiments was initiated. In these gall bladder and NSCLC tumor experiments, patient-derived tumor xenograft (PDX) models were selected since these models more accurately mimic the histology and genetics of actual human tumors as compared with the cell line derived models. More specifically, the original tumor sources for these human tumor xenograft models were patient-derived (PDX) gall bladder and lung carcinomas that have been maintained subcutaneously in nude mice for >3 passages. When grown to 500-700 mm^3, the tumors were harvested for inoculation by selecting and slicing (into 3×3×3 mm^3 fragments) well grown portions of tumors. These tumor fragments were implanted subcutaneously in the right flank of athymic nu/nu mice (female, 6-8 weeks old (18-20 g)) for the efficacy experiments. All of the procedures for tumor harvesting, inoculation, animal dosing, and tumor and body weight measurement were conducted in a sterile hoods.
(§2) For the efficacy studies, when the average tumor size reached 100-200 mm^3, mice were randomly grouped into vehicle and TH-302 treatment groups. Each group contained 8-10 mice. Since the tumor volume could affect the effectiveness of any given treatment, a randomized block design was used in the group assignment based upon their tumor volumes. […] After randomization, mice were treated with either vehicle or TH-302 i.p. 60 mg/kg twice per week (Q2W) for approximately 5-8 weeks based on tumor grow rate and response. The precise dosing periods are described in the legends of FIGS. 1 and 2 above. Tumor volumes were measured twice weekly.
(§3) %ΔT/ΔC was calculated with the formula below: %ΔT/ΔC=((TVf−TVi)/(TVfCtrl−TViCtrl))×100% where TV=tumor volume, f=final, I=initial, and Ctrl=control group.
(§4) If tumor regression was observed: %ΔT/ΔC=(TVf−TVi)/TVi)×100%=% Regression=(1−(TVf/TVi))×100% where TV=tumor volume, f=final, I=initial, and Ctrl=control group. […]

[2] = test system: GL1208 gall bladder cancer PDX xenograft model; assay: TH-302 efficacy in GL1208 gall bladder cancer PDX xenograft model; assay type: in vivo, mice
Text: as §1
(§5) For the efficacy studies, when the average tumor size reached 100-200 mm^3, mice were randomly grouped into vehicle and TH-302 treatment groups. Each group contained 8-10 mice. […] Tumor volumes were measured twice weekly.
(§6) %ΔT/ΔC was calculated with the formula below: %ΔT/ΔC=((TVf−TVi)/(TVfCtrl−TViCtrl))×100% where TV=tumor volume, f=final, I=initial, and Ctrl=control group. […]

[3] = test system: LU1245 NSCLC PDX xenograft model; assay: TH-302 efficacy in LU1245 NSCLC PDX xenograft model; assay type: in vivo, mice
Text: as §1, §2, §3, §4

[4] = test system: LU1304 NSCLC PDX xenograft model; assay: TH-302 efficacy in LU1304 NSCLC PDX xenograft model; assay type: in vivo, mice
Text: as §1, §5, §6

[5] = test system: LU2505 NSCLC PDX xenograft model; assay: TH-302 efficacy in LU2505 NSCLC PDX xenograft model; assay type: in vivo, mice
Text: as §1, §5, §6

[6] = test system: LU1380 NSCLC PDX xenograft model; assay: TH-302 efficacy in LU1380 NSCLC PDX xenograft model; assay type: in vivo, mice
Text: as §1, §5, §6

[7] = test system: LU0357 NSCLC PDX xenograft model; assay: TH-302 efficacy in LU0357 NSCLC PDX xenograft model; assay type: in vivo, mice
Text: as §1, §5, §6

[8] = test system: LU1235 NSCLC PDX xenograft model; assay: TH-302 efficacy in LU1235 NSCLC PDX xenograft model; assay type: in vivo, mice
Text: as §1, §5, §6

[9] = test system: LU0387 NSCLC PDX xenograft model; assay: TH-302 efficacy in LU0387 NSCLC PDX xenograft model; assay type: in vivo, mice
Text: as §1, §5, §6

[10] = Body weights of mice treated with TH-302 in PDX xenograft studies; assay type: in vivo; details: 60 mg/kg i.p. Q2W, data not shown
Text: as §1
For the efficacy studies, when the average tumor size reached 100-200 mm^3, mice were randomly grouped into vehicle and TH-302 treatment groups. Each group contained 8-10 mice. Since the tumor volume could affect the effectiveness of any given treatment, a randomized block design was used in the group assignment based upon their tumor volumes. […] Tumor volumes were measured twice weekly.

[11] = test system: panel of 11 cancer cell-line derived models; details: previous tumor xenograft studies; cited from earlier work

## Cn1c(COP(=O)(NCCBr)NCCBr)cnc1[N+](=O)[O-] [TH-302, (2-bromoethyl)({[(2-bromoethyl)amino][(2-nitro-3-methylimidazol-4-yl)methoxy]phosphoryl})amine]
[1]; GL0608, gall bladder, adenocarcinoma, TH-302 60 mg/kg i.p. twice per week (Q2W), 59 days
  %ΔT/ΔC (TH-302): −100%
[1]; GL0608, 60 mg/kg i.p. Q2W for 59 days, at day 99, final tumor measurement
  mice with a complete response (lack of tumor re-growth following regression): 10/10
[1]; GL0608, 60 mg/kg i.p. Q2W, treatment period 59 days
  antitumor activity (tumor growth measurements), in words: highly sensitive
[2]; GL1208, gall bladder, adenosquamous, TH-302 60 mg/kg i.p. twice per week (Q2W), 49 days
  %ΔT/ΔC (TH-302): 62%
[2]; GL1208, 60 mg/kg i.p. Q2W, after 49 days treatment
  antitumor activity (tumor growth measurements), in words: minor tumor growth inhibition
[3]; LU1245, NSCLC EGFR wt, TH-302 60 mg/kg i.p. twice per week (Q2W), 49 days
  %ΔT/ΔC (TH-302): −42%
[3]; LU1245, 60 mg/kg i.p. Q2W, 49 day dosing period
  antitumor activity (tumor growth measurements), in words: highly sensitive
[3]; LU1245, 60 mg/kg i.p. Q2W, 49 day dosing, at day 73 (14 days post treatment termination)
  mice with a complete response (lack of tumor re-growth following regression): 5/10
[4]; LU1304, NSCLC EGFR wt, TH-302 60 mg/kg i.p. twice per week (Q2W), approximately 5-8 weeks
  %ΔT/ΔC (TH-302): 93%
[4]; LU1304, similar to LU1380
  antitumor activity, in words: minor level of efficacy
[5]; LU2505, NSCLC EGFR wt, TH-302 60 mg/kg i.p. twice per week (Q2W), approximately 5-8 weeks
  %ΔT/ΔC (TH-302): 34%
[5]; LU2505, similar to LU1380
  antitumor activity, in words: minor level of efficacy
[6]; LU1380, NSCLC EGFR wt, TH-302 60 mg/kg i.p. twice per week (Q2W), 42 days
  %ΔT/ΔC (TH-302): 86%
[6]; LU1380, 60 mg/kg i.p. Q2W, after 42 days treatment
  antitumor activity (tumor growth measurements), in words: minor tumor growth inhibition
[7]; LU0357, NSCLC EGFR mt, TH-302 60 mg/kg i.p. twice per week (Q2W), approximately 5-8 weeks
  %ΔT/ΔC (TH-302): 93%
[7]; LU0357, similar to LU1380
  antitumor activity, in words: minor level of efficacy
[8]; LU1235, NSCLC EGFR mt, TH-302 60 mg/kg i.p. twice per week (Q2W), approximately 5-8 weeks
  %ΔT/ΔC (TH-302): 74%
[8]; LU1235, similar to LU1380
  antitumor activity, in words: minor level of efficacy
[9]; LU0387, NSCLC EGFR mt, TH-302 60 mg/kg i.p. twice per week (Q2W), approximately 5-8 weeks
  %ΔT/ΔC (TH-302): 84%
[9]; LU0387, similar to LU1380
  antitumor activity, in words: minor level of efficacy
[10]; NSCLC PDX studies (LU1245, LU1380)
  changes in the body weights of the mice treated with TH-302: No significant changes
[10]; gall bladder PDX studies (GL0608, GL1208)
  changes in the body weights of the mice treated with TH-302: No significant changes
[11]
  monotherapy efficacy (tumor growth delays): modest
